Measurements: the NIST ThermoML archive (doi:10.1016/j.jct.2010.12.010)
Values joined by “and” are separate entries in the source; they are usually repeats but may differ in a detail not shown here. Equal entries are not always repeated. Numbers after ± are expanded uncertainties.

Settings: Liquid, Manometric method

CC(N)CN (centres undefined) [1,2-propanediamine]
Settings | vapor or sublimation pressure
284.01 K | 0.5922 ± 0.079 kPa
293.15 K | 1.085 ± 0.08 kPa
293.98 K | 1.147 ± 0.08 kPa and 1.145 ± 0.08 kPa
303.15 K | 2.004 ± 0.082 kPa
303.91 K | 2.1 ± 0.083 kPa and 2.098 ± 0.083 kPa
313.15 K | 3.535 ± 0.086 kPa
313.84 K | 3.667 ± 0.086 kPa and 3.669 ± 0.086 kPa and 3.659 ± 0.086 kPa
323.15 K | 5.985 ± 0.092 kPa
324.02 K | 6.238 ± 0.093 kPa
333.15 K | 9.764 ± 0.1 kPa
334 K | 10.11 ± 0.11 kPa
343.15 K | 15.41 ± 0.12 kPa
353.15 K | 23.61 ± 0.14 kPa
363.15 K | 35.21 ± 0.18 kPa
363.91 K | 36.31 ± 0.17 kPa and 36.33 ± 0.17 kPa

NCCCN [1,3-propanediamine]
Settings | vapor or sublimation pressure
284.84 K | 0.3186 ± 0.078 kPa and 0.3177 ± 0.078 kPa
293.15 K | 0.5332 ± 0.079 kPa
294.82 K | 0.5842 ± 0.079 kPa
303.15 K | 0.9648 ± 0.08 kPa
313.15 K | 1.688 ± 0.082 kPa
314.79 K | 1.829 ± 0.082 kPa
323.15 K | 2.863 ± 0.084 kPa
324.9 K | 3.145 ± 0.085 kPa
333.15 K | 4.72 ± 0.089 kPa
334.87 K | 5.175 ± 0.09 kPa
343.15 K | 7.58 ± 0.097 kPa
344.87 K | 8.263 ± 0.098 kPa
353.15 K | 11.88 ± 0.11 kPa
354.83 K | 12.67 ± 0.11 kPa
363.15 K | 18.22 ± 0.13 kPa
364.78 K | 19.47 ± 0.13 kPa

NCCCCN [1,4-butanediamine]
Settings | vapor or sublimation pressure
284.92 K | 0.1292 ± 0.078 kPa and 0.1296 ± 0.078 kPa
293.15 K | 0.2012 ± 0.078 kPa
303.15 K | 0.3324 ± 0.078 kPa
312.83 K | 0.54 ± 0.079 kPa
313.15 K | 0.5322 ± 0.079 kPa
323.15 K | 0.8282 ± 0.079 kPa
332.86 K | 1.276 ± 0.08 kPa
333.15 K | 1.256 ± 0.08 kPa
342.85 K | 1.703 ± 0.082 kPa
343.15 K | 1.859 ± 0.082 kPa
352.87 K | 2.691 ± 0.084 kPa and 2.692 ± 0.084 kPa
353.15 K | 2.692 ± 0.084 kPa
362.86 K | 3.797 ± 0.086 kPa and 3.813 ± 0.086 kPa and 3.794 ± 0.086 kPa
362.88 K | 3.8 ± 0.086 kPa
362.9 K | 3.807 ± 0.086 kPa
363.15 K | 3.822 ± 0.087 kPa

NCCN [ethane-1,2-diamine]
Settings | vapor or sublimation pressure
285.5 K | 0.659 ± 0.079 kPa
293.15 K | 1.139 ± 0.08 kPa
303.15 K | 2.179 ± 0.083 kPa
305.44 K | 2.559 ± 0.084 kPa
313.15 K | 3.937 ± 0.087 kPa
315.43 K | 4.484 ± 0.089 kPa
315.48 K | 4.485 ± 0.089 kPa
323.15 K | 6.767 ± 0.094 kPa
326.2 K | 7.827 ± 0.097 kPa
333.15 K | 11.13 ± 0.11 kPa
335.88 K | 12.41 ± 0.11 kPa
343.15 K | 17.62 ± 0.12 kPa
345.7 K | 19.74 ± 0.13 kPa and 19.73 ± 0.13 kPa and 19.72 ± 0.13 kPa
353.15 K | 26.93 ± 0.15 kPa
355.67 K | 29.85 ± 0.16 kPa and 29.83 ± 0.16 kPa
355.69 K | 29.84 ± 0.16 kPa
363.15 K | 39.94 ± 0.19 kPa
365.6 K | 43.83 ± 0.19 kPa [middle of 4 runs]
365.63 K | 43.82 ± 0.19 kPa and 43.83 ± 0.19 kPa and 43.81 ± 0.19 kPa

O [water]
Settings | vapor or sublimation pressure
285.15 K | 1.362 ± 0.081 kPa
293.15 K | 2.277 ± 0.083 kPa
295.14 K | 2.562 ± 0.084 kPa
303.15 K | 4.165 ± 0.087 kPa
313.15 K | 7.284 ± 0.095 kPa
315.19 K | 8.02 ± 0.097 kPa
323.15 K | 12.23 ± 0.11 kPa
325.11 K | 13.5 ± 0.11 kPa and 13.53 ± 0.11 kPa
325.13 K | 13.5 ± 0.11 kPa and 13.52 ± 0.11 kPa and 13.53 ± 0.11 kPa
333.15 K | 19.82 ± 0.12 kPa
335.12 K | 21.77 ± 0.13 kPa
343.15 K | 31.09 ± 0.15 kPa
345.05 K | 33.84 ± 0.17 kPa
345.07 K | 33.85 ± 0.17 kPa and 33.84 ± 0.17 kPa
353.15 K | 47.34 ± 0.19 kPa
355.03 K | 51.15 ± 0.21 kPa
363.15 K | 70.22 ± 0.25 kPa
364.97 K | 75.14 ± 0.27 kPa [middle of 5 runs]
